Reference: ChEMBL document CHEMBL3507680, “University of Dundee, Gates Library screen for HepG2 cell viability”

test: Human HepG2 cell viability assay in 384 well format; assay type: toxicity, cell-based; parameters: dose 125 nL, time 70.5 hour; cytotoxicity at 70.5 h: concentration not given beside the values; conditions: HepG2 cells, read-out: Inhibition

| SMILES | cytotoxicity at 70.5 h [%] |
| --- | --- |
| CNS(=O)(=O)c1ccc(C(=O)NC2CCOc3ccccc32)o1 (configuration not stated) | -1.45 |
| Cc1nc2cc(O)nn2c(C)c1CCC(=O)N(C)Cc1cscn1 | 30.1 |
| CCS(=O)(=O)CC(=O)NC(c1ccc(F)cc1)C1CCCC1 (configuration not stated) | 1.5 |
| CCN(CC)C(=O)CCc1c(C)nc2cc(O)nn2c1C | -3.01 |
| Cc1cccc(OCCC(=O)N(C)CCC#N)c1C | -8.74 |
| CCS(=O)(=O)CC(=O)NC(c1ccccc1)C1CCCCC1 (configuration not stated) | 2.89 |
| CN(CCn1nc2ccccn2c1=O)CC(=O)N1CCCC1 | 4.26 |
| CN(Cc1nccn1CC(F)(F)F)C(=O)c1ccc(F)cc1F | -5.49 |
| CNS(=O)(=O)c1cc(C(=O)NC2CCOc3ccccc32)cc(C)c1C (configuration not stated) | 8.79 |
| Cc1cccc(OCCC(=O)N(C)CCNS(C)(=O)=O)c1C | 0.181 |
| CCc1nc(C2CCCN(C(=O)c3cnn(CC)c3)C2)no1 (configuration not stated) | 2.05 |
| COc1cccc2c1OCC(NC(=O)NC1CCN(C3CC3)CC1)C2 (configuration not stated) | -5.93 |
| CC(O)CN1CCN(C(=O)c2cc3ccccc3c(=O)[nH]2)CC1 (configuration not stated) | -1.26 |
| CN(CCN1CCOCC1)C(=O)CCCc1ccccc1 | -2.26 |
| CN(CCn1nc2ccccn2c1=O)CC(=O)NC1CC1 | -8.39 |
| Cc1cnn(CC2CCCN2C(=O)CCc2c(C)noc2Cl)c1 (configuration not stated) | -8.81 |
| O=C(c1ccc(F)c(F)c1)N1CCCC1CN1CCCC1 (configuration not stated) | -1.66 |
| O=C(NCCc1nnc2n1CCC2)NC1(c2cccc(F)c2)CC1 | 7.47 |
| CCOc1nnc(CN(C)CC2CCCN2c2cccnn2)s1 (configuration not stated) | -4.16 |
| CNC(=O)Cc1ccc(NC(=O)NC(C)C(C)C)cc1 (configuration not stated) | -15.4 |
| CC(=O)N1CCN(S(=O)(=O)c2ccc(C)c(F)c2)CC1 | -4.35 |
| Cc1ccc(C(=O)NCCCNS(C)(=O)=O)cc1-n1cccc1 | -4.62 |
| CCNC(=O)NC(=O)CNC1(c2noc(C)n2)CCCCC1 | 28.5 |
| CC(c1nc(C2CC2)no1)N1CCN(c2ccc(C#N)cn2)CC1 (configuration not stated) | -10.6 |

| SMILES | cytotoxicity at 70.5 h [%] |
| --- | --- |
| NC(=O)C(CNC(=O)COCC(F)(F)F)Cc1ccc(F)cc1 (configuration not stated) | -18.2 |
| CC(C)C(C)NC(=O)Nc1ccc(CS(C)(=O)=O)cc1 (configuration not stated) | -8.12 |
| Cc1ccc(O)c(CNC2CCc3nc(C(C)C)nn3C2)n1 (configuration not stated) | -11.7 |
| CC(C)(C)c1n[nH]c(C2CN(C(=O)c3cc(Cl)c[nH]3)CCO2)n1 (configuration not stated) | -10.3 |
| Cc1ncsc1C(=O)Nc1cccc(OCC(F)F)n1 | -8.57 |
| Cc1nc(CCNC(=O)N2CCC(Cc3cnn(C)c3)C2)cs1 (configuration not stated) | -29.6 |
| Cc1cccc(C(=O)N(C)Cc2cc(Br)cs2)n1 | -27.1 |
| COCC(=O)N1CCN(C(=O)c2scnc2C)CC1 | -11.5 |
| COC(=O)c1ccoc1COC(=O)CCc1ccc(OC)c(OC)c1 | -15.4 |
| CCOC(CC)C(=O)NCCC(=O)N1CCN(c2ncccn2)CC1 (configuration not stated) | -18.6 |
| Cc1noc(C(C)N2CCN(CC(=O)N3CCOCC3)CC2)n1 (configuration not stated) | 24 |
| COCCCN(CCOC)C(=O)Nc1ccc(C)cc1C | 0.857 |
| COCCCN(CCOC)C(=O)Nc1ccccc1Br | -15.2 |
| CC(C)(C)c1n[nH]c(C2CN(C(=O)c3cc(C4CC4)on3)CCO2)n1 (configuration not stated) | 28.3 |
| CC(C)c1nc(C(=O)N2CCOCC2CC(=O)c2ccco2)c[nH]1 (configuration not stated) | -14.6 |
| CN(Cc1ccc(Cl)s1)C1CCCN(c2cccnn2)C1 (configuration not stated) | -11.8 |
| Cc1cnn(CC2CCCCN2CC(=O)NCc2ccccn2)c1 (configuration not stated) | -11 |
| CSCCC(=O)N1CCCC1c1ccsc1 (configuration not stated) | 13.3 |
| CCc1nnc2n1CC(CNCc1ccncc1)CC2 (configuration not stated) | -6.39 |
| CCOc1ncccc1NC(=O)c1cc2c(s1)CCC2 | 1.84 |
| COc1ccc(CN(C)C(=O)CCc2c(C)nc(C)[nH]c2=O)cc1OC | -7.96 |
| COc1cccc(NC(=O)N(CCO)Cc2ccsc2)c1 | -3.88 |
| NC(=O)COc1ccc(CNCc2ccc(F)cc2F)cc1 | -5.1 |
